Experimental data taken from patent US4022912A, “Use of 1-decarboxy-1-hydroxymethyl-PGE1 in therapeutic bronchodilation” (priority 1976, dated 1977).
“Also recorded” adds a separate entry of the source. Like-named read-outs stand apart in the source and are kept apart here.

Legend:
Conscious Cat = assay: Tracheobronchial irritancy (coughing) in conscious cats after inhalation; assay type: in vivo; details: for tracheobronchial irritancy compared with PGE1: inhalation, equivalent concentrations/dosages
Protocol: A test drug was given at concentrations from 0.01 μg/ml (up to 100 μg/ml) at two hour intervals exposing each cat for up to 10 minutes each time. If coughing occurred no further challenge was given that day. Two to three days later the other test substance was given. The aerosol was delivered from an ultrasonic nebulizer via rubber tubing connected to a face mask fitted to the cat. The animal was mildly restrained. Coughing was noted by an observer and also monitored by a microphone connected to a tape recorder.

[1] = test system: Histamine-Induced Bronchoconstriction; assay: Inhibition of histamine-induced bronchoconstriction in the anesthetized guinea pig in vivo by intravenous administration; details: for ED50: Cavia porcellus, iv, i.v. 15 seconds prior to histamine
Protocol: (§1) Male albino guinea pigs (400-600 g; Dunkin-Hartley Strain) were anesthetized with pentobarbitone sodium (60 mg/kg intraperitoneally).
(§2) Trachea, external jugular vein and carotid artery were cannulated for recording ventilation, intravenous administration of drugs, and blood pressure respectively. The animals were artificially respired throughout the experiment. Electrocardiograms were also recorded. Respiratory flow was charted on a twin-channel recorder fixed to an SE differential pressure transducer.
(§3) Histamine was administered intravenously at 5 minute intervals. The test drug was administered intravenously 15 seconds prior to histamine in order to inhibit bronchoconstriction.

[2] = test system: Guinea Pig Tracheal Tissue; assay: Relaxation of guinea pig tracheal tissue in vitro; assay type: cell-based; details: for Relaxation (×80) (± S.E.): Table B, standard error in parentheses
Protocol: Male guinea pigs weighing 200-500 g were killed by a blow on the head. A 20 mm length of trachea was dissected from each of the animals, transferred to a petri dish containing Krebs' solution aerated with 95% O2 and 5% CO2 at 37° C., and cut longitudinally opposite the tracheal muscle. The tissue was then cut transversely three quarters of the distance across; a second cut in the opposite direction again three quarters of the distance across the tissue was made, and the procedure was continued for the whole tissue. The ends of the trachea were pulled to form a zig-zag shaped strip. The tracheal strips used in the experiment were approximately 30 mm when extended under 0.25-0.5 g load in a tissue bath. Cotton thread was tied to one end of the tissues, and linen thread to the other. The tissues were attached via the linen thread to a glass hook in a 5 ml isolated tissue bath containing Krebs' solution at 37° C. aerated with a mixture of 95% O2 and 5% CO2. The opposite ends were attached via cotton thread to an isotonic transducer. The load on the transducer lever was small, usually 0.3 g, with a range of 0.25-0.5 g; and the magnification high, 80-fold using an appropriate twin-channel pen recorder. A minimum of thirty minutes was allowed before applying a drug to the tissues. Drugs were then applied (in volumes of 0.5 ml) at thirty minute intervals, being in contact with the tissue for five minutes followed by an overflow washout time of twenty seconds.

Guinea Pig Ileum = assay: Antagonism to PGE1 in the guinea pig ileum in vitro; assay type: cell-based; details: for antagonism of the effects of PGE1 in the guinea pig ileum: in vitro
Protocol: Preparations were placed in tissue chambers filled with Ringer-Tyrode solution at 37° C., bubbled with a mixture of 95% O2 and 5% CO2, and arranged for isometric recording with force displacement transducers. The segments were stretched to an initial tension of 1 g, and responses to a test concentration of acetylcholine (0.1 mcg/ml) were obtained every 5 minutes until two similar responses were observed (usually after four administrations). Responses to PGE1
(0.1 mcg/ml) were obtained and recorded at 5 minute intervals before and after 100 seconds of incubation with 0.1 and 1.0 mcg/ml of 1-decarboxy-1-hydroxymethyl-PGE1. Any direct contractile effect of the test compound was recorded and evaluated in terms of mean values in grams of tension developed at each concentration. Responses to the agonist observed after incubation with the test compound were expressed as percent of control responses. All drugs were administered in a volume of 0.1 ml.

platelet aggregation = details: U.S. Pat. No. 3,636,120 (Pike); cited from earlier work
[3] = test system: Convulsions Induced by Inhaled Histamine; assay: Delay of convulsions induced by inhaled histamine in conscious guinea pigs; assay type: in vivo, guinea pig
Protocol: Conscious male albino guinea pigs (Dunkin-Hartley strain) weighing 200-300 g were placed (singly) in a 5-liter transparent chamber for 1 minute and subjected to an aerosol of vehicle or test drug in solution, plus histamine (1% w/v).
The time from the beginning of the administration of the aerosol to the start of the first convulsion (when the guinea pig is immediately removed from the aerosol) is the pre-convulsion time. Twenty-four hours later the general procedure was repeated. Guinea pigs treated with the test drug on the first day were treated with vehicle on the second day and vice versa in a cross-over design. Maximum time allowed in the aerosol was 10 minutes. An ultrasonic humidifier was used to produce the aerosol.

[4] = test system: mobilization of free fatty acids induced by epinephrine; details: U.S. Pat. No. 3,636,120 (Pike); cited from earlier work
[5] = test system: Histamine-Induced Bronchoconstriction; assay: Inhibition of intravenous histamine-induced bronchoconstriction in the anesthetized guinea pig by inhalational administration; assay type: in vivo
Protocol: as §1, §2, §3
Details of the procedure of this example are the same as those in preceding Example 2 with the exception that the test compounds were delivered in aerosol form into the trachea of the test aminals.

[6] = 0.10 μg/ml of stock solution aerosolized
[7] = 1.00 μg/ml of stock solution aerosolized
[8] = listed as 1-decarboxy-1-methylhydroxy-PGE1

In the case of `CCCCC[C@H](O)/C=C/[C@H]1[C@H](O)CC(=O)[C@@H]1CCCCCCCO` [1-Decarboxy-1-Hydroxymethyl-PGE1, 15(S)-1,11α,15α-trihydroxy-9-oxo-13-trans-prostene], the “Incidence of Coughing in a Female (F) Cat” value (Conscious Cat; [6]) is reported as 0/3, the “Incidence of Coughing in a Male (M) Cat” value (Conscious Cat; [6]) is reported as 0/3 and the “Incidence of Coughing in a Female (F) Cat” value (Conscious Cat; [7]) is reported as 1/3. The “Incidence of Coughing in a Male (M) Cat” value (Conscious Cat; [7]) was 0/3, the “Incidence of Coughing in a Male (M) Cat” value (Conscious Cat; 10.00 μg/ml of stock solution aerosolized) was 0/3 and the “Incidence of Coughing in a Male (M) Cat” value (Conscious Cat; 100.00 μg/ml of stock solution aerosolized) was 0/2. The “tracheobronchial irritancy compared with PGE1” value (Conscious Cat) was “much lower incidence of tracheobronchial irritancy than does PGE1 at equivalent concentrations; also recorded: does not cause tracheal-bronchial irritation at equivalent dosages”, the “tracheobronchial irritancy compared with PGE1” value (Conscious Cat; [8]) was “less irritating than PGE1” and the “Ratio of ID50 Values (A/B)” value ([1]; A = PGE1, B = 1-decarboxy-1-hydroxymethyl-PGE1, Experiment No. 1) was 1.14. The “Ratio of ID50 Values (A/B)” value ([1]; A = PGE1, B = 1-decarboxy-1-hydroxymethyl-PGE1, Experiment No. 2) was 1.25, the “Ratio of ID50 Values (A/B)” value ([1]; A = PGE1, B = 1-decarboxy-1-hydroxymethyl-PGE1, Experiment No. 3) was 1.17 and the “Ratio of ID50 Values (A/B)” value ([1]; A = PGE1, B = 1-decarboxy-1-hydroxymethyl-PGE1, Experiment No. 4) was 1.14. The “Ratio of ID50 Values (A/B)” value ([1]; A = PGE1, B = 1-decarboxy-1-hydroxymethyl-PGE1, Experiment No. 5) was 1.05, the “Ratio of ID50 Values (A/B), Mean” value ([1]; A = PGE1, B = 1-decarboxy-1-hydroxymethyl-PGE1, mean) was 1.17 and the ED50 ([1]; Experiment No. 1, read-out: Dose I.V. inhibiting bronchoconstriction by 50% (ID50)) was 0.529 µg/kg. For the same molecule, the ED50 ([1]; Experiment No. 2, read-out: Dose I.V. inhibiting bronchoconstriction by 50% (ID50)) was 0.733 µg/kg, the ED50 ([1]; Experiment No. 3, read-out: Dose I.V. inhibiting bronchoconstriction by 50% (ID50)) was 0.225 µg/kg and the ED50 ([1]; Experiment No. 4, read-out: Dose I.V. inhibiting bronchoconstriction by 50% (ID50)) was 0.756 µg/kg. The ED50 ([1]; Experiment No. 5, read-out: Dose I.V. inhibiting bronchoconstriction by 50% (ID50)) was 0.193 µg/kg, the ED50 ([1]; mean of experiments 1-5, read-out: Dose I.V. inhibiting bronchoconstriction by 50% (ID50), Mean) was 0.495 µg/kg and the “Relaxation (×80) (± S.E.)” value ([2]; 0.001 μg/ml) was 24 (18) mm. The “Relaxation (×80), 1st Tissue” value ([2]; 0.01 μg/ml) was 30 mm, the “Relaxation (×80), 2nd Tissue” value ([2]; 0.01 μg/ml) was 30 mm and the “Relaxation (×80) (± S.E.)” value ([2]; 0.010 μg/ml) was 59 (30) mm. For the same molecule, the “Relaxation (×80), Mean Response” value ([2]; 0.01 μg/ml) was 30 mm, the “Relaxation (×80), 1st Tissue” value ([2]; 0.10 μg/ml) was 113 mm and the “Relaxation (×80), 2nd Tissue” value ([2]; 0.10 μg/ml) was 93 mm. For the same molecule, the “Relaxation (×80) (± S.E.)” value ([2]; 0.100 μg/ml) was 79 (21) mm, the “Relaxation (×80), Mean Response” value ([2]; 0.10 μg/ml) was 104 mm and the “Relaxation (×80), 1st Tissue” value ([2]; 1.00 μg/ml) was 153 mm. For the same molecule, the “Relaxation (×80), 2nd Tissue” value ([2]; 1.00 μg/ml) was 173 mm, the “Relaxation (×80) (± S.E.)” value ([2]; 1.000 μg/ml) was 104 (14) mm and the “Relaxation (×80), Mean Response” value ([2]; 1.00 μg/ml) was 163 mm. For the same molecule, the “Relaxation (×80), 1st Tissue” value ([2]; 10.00 μg/ml) was 146 mm, the “Relaxation (×80), 2nd Tissue” value ([2]; 10.00 μg/ml) was 199 mm and the “Relaxation (×80) (± S.E.)” value ([2]; 10.000 μg/ml) was 105 (35) mm. For the same molecule, the “Relaxation (×80), Mean Response” value ([2]; 10.00 μg/ml) was 172 mm, the “times more potent than PGE1 in relaxing guinea pig tracheal tissue” value ([2]; at 0.001 μg/ml, relative to PGE1) was 24 times and the “comparative effectiveness vs PGE1 in relaxation of tracheal tissue” value ([2]; equivalent concentrations) was “clearly more effective at equivalent concentrations”. The “times more potent than PGE1 in relaxing guinea pig tracheal tissue in vitro” value ([2]; relative to PGE1, no concentration stated for this clause) was 24 times, the “Direct Effect, gm tension” value (Guinea Pig Ileum; 0.1 mcg/ml) was 0.0 gm tension and the “Direct Effect, gm tension” value (Guinea Pig Ileum; 1.0 mcg/ml) was 0.0 gm tension. The inhibition at 0.1 µg/mL (Guinea Pig Ileum; Cavia porcellus, 100 s, read-out: %-Blockade of Tissue Response to 0.1 mcg/ml of PGE1, 0.1 mcg/ml, 100 seconds of incubation) was 38%, the inhibition at 1 µg/mL (Guinea Pig Ileum; Cavia porcellus, 100 s, read-out: %-Blockade of Tissue Response to 0.1 mcg/ml of PGE1, 1.0 mcg/ml, 100 seconds of incubation) was 100% and the “direct effect on the tissue” value (Guinea Pig Ileum; at the tested concentrations) was “no effect on the tissue at the tested concentrations”. For the same molecule, the “antagonism of the effects of PGE1 in the guinea pig ileum” value (Guinea Pig Ileum) was “inhibits the effects of PGE1 in guinea pig ileum tissue in vitro”, the “antagonism of the effects of PGE1 in the guinea pig ileum” value (Guinea Pig Ileum; [8]) was “antagonizes the effects of PGE1 in the guinea pig ileum” and the “effect on platelet aggregation” value (platelet aggregation) was “inhibits platelet aggregation”. The “Prolongation of Preconvulsion Time” value ([3]; Expt. 1A, 0.10 μg/ml stock solution aerosolized, P <0.02) was 99 s, the “Prolongation of Preconvulsion Time” value ([3]; Expt. 1A, 0.50 μg/ml stock solution aerosolized, P <0.001) was 140 s and the “Prolongation of Preconvulsion Time” value ([3]; Expt. 1A, 2.50 μg/ml stock solution aerosolized, P <0.01) was 141 s. The “Prolongation of Preconvulsion Time” value ([3]; Expt. 1A, 10.00 μg/ml stock solution aerosolized, P <0.02) was 181 s, the “Prolongation of Preconvulsion Time” value ([3]; Expt. 2A, 0.01 μg/ml stock solution aerosolized, P <0.01) was 54 s and the “Prolongation of Preconvulsion Time” value ([3]; Expt. 2A, 0.10 μg/ml stock solution aerosolized, P <0.05) was 41 s. The “Prolongation of Preconvulsion Time” value ([3]; Expt. 2A, 1.00 μg/ml stock solution aerosolized, P <0.02) was 108 s, the “Prolongation of Preconvulsion Time” value ([3]; Expt. 2A, 10.00 μg/ml stock solution aerosolized, P <0.02) was 198 s and the “Prolongation of Preconvulsion Time” value ([3]; Expt. 2A, 25.00 μg/ml stock solution aerosolized, P <0.001) was 302 s. The “effect on mobilization of free fatty acids induced by epinephrine” value [4] was “antagonizes mobilization of free fatty acids induced by epinephrine”, the “Precent Inhibition of Histamine-Induced Bronchoconstriction” value ([5]; 0.001 μg/ml in stock solution aerosolized, inhalation) was 24% and the “times more effective than PGE1 in inhibition of histamine-induced bronchoconstriction” value ([5]; at 0.001 μg/ml, guinea pig in vivo, relative to PGE1) was 4 times.
